Measured values from ChEMBL document CHEMBL6078678, “Unveiling the Antimycobacterial Potential of Novel 4-Alkoxyquinolines: Insights into Selectivity, Mechanism of Action, and In Vivo Exposure” (J Med Chem, 2024).
≈ marks a conversion by molar mass, not a printed value.

Tests used:
[1] = (§1) Cytotoxicity against human HepG2 cells assessed as reduction in cell viability incubated for 72 hrs by MTT assay; type: toxicity, cell-based; conditions: HepG2 cells
[2] = (§2) Cytotoxicity against human HepG2 cells assessed as reduction in cell viability incubated for 72 hrs by neutral red uptake method; type: toxicity, cell-based; conditions: HepG2 cells
[3] = (§3) Cytotoxicity against African green monkey Vero cells assessed as reduction in cell viability incubated for 72 hrs by MTT assay; type: toxicity, cell-based; conditions: chlorocebus sabaeus, Vero cells
[4] = Aqueous solubility of compound in HCl at pH 1.2 incubated for 4 hrs by UHPLC-DAD analysis; type: physicochemical
Staphylococcus aureus = type: functional; conditions: ATCC 25923, time 24 hrs
Escherichia coli = type: functional; conditions: ATCC 25922, time 24 hrs
Acinetobacter baumannii = type: functional; conditions: time 24 hrs
Klebsiella pneumoniae = type: functional; conditions: time 24 hrs
[5] = Chemical stability of compound in 0.1 M HCl solution at pH 1.2 assessed as parent compound remaining at 10 uM measured after 24 hrs by HPLC-MS/MS analysis; type: physicochemical; conditions: read-out: Stability
[6] = Chemical stability of compound in PBS at pH 7.4 assessed as parent compound remaining at 10 uM measured after 24 hrs by HPLC-MS/MS analysis; type: physicochemical; conditions: read-out: Stability
[7] = Chemical stability of compound in 0.1M NH4HCO3 solution at pH 9.1 assessed as parent compound remaining at 10 uM measured after 24 hrs by HPLC-MS/MS analysis; type: physicochemical; conditions: read-out: Stability
[8] = Permeability of compound at pH 7.4 at 10 uM measured after 5 hrs by PAMPA assay; type: ADME; conditions: read-out: permeability
[9] = Metabolic stability in rat liver microsomes assessed as intrinsic clearance at 2 uM measured upto 30 mins in presence of NADPH by HPLC-MS/MS analysis; type: ADME, Microsome; conditions: read-out: CLH
[10] = Metabolic stability in rat liver microsomes assessed as half-life at 2 uM measured upto 30 mins in presence of NADPH by HPLC-MS/MS analysis; type: ADME, Microsome
[11] = test system: Mycobacterium tuberculosis; type: functional, H37Rv (ATCC 27294), RAW264.7; conditions: dose 1 µM; time 5 day
[12] = test system: Mycobacterium tuberculosis; type: functional, H37Rv (ATCC 27294), RAW264.7; conditions: dose 5 µM; time 5 day
[13] = Drug concentration in male CF1 mouse plasma at 300 mg/kg, po administered via gavage and measured after […] by UHPLC-DAD analysis; type: ADME, organism-based; conditions: time 0.25 hrs
[14] = Drug concentration in male CF1 mouse plasma at 300 mg/kg, po administered via gavage and measured after 0.5 hrs by UHPLC-DAD analysis; type: ADME, organism-based
[15] = Drug concentration in male CF1 mouse plasma at 300 mg/kg, po administered via gavage and measured after 0.75 hrs by UHPLC-DAD analysis; type: ADME, organism-based
[16] = Drug concentration in male CF1 mouse plasma at 300 mg/kg, po administered via gavage and measured after 1 hrs by UHPLC-DAD analysis; type: ADME, organism-based
[17] = Drug concentration in male CF1 mouse plasma at 300 mg/kg, po administered via gavage and measured after 4 hrs by UHPLC-DAD analysis; type: ADME, organism-based
[18] = Drug concentration in male CF1 mouse plasma at 300 mg/kg, po administered via gavage and measured after 8 hrs by UHPLC-DAD analysis; type: ADME, organism-based
[19] = Half-life in male CF1 mouse at 300 mg/kg, po administered via gavage and measured after 8 hrs by UHPLC-DAD analysis; type: ADME, organism-based; conditions: in vivo
[20] = Elimination rate constant in male CF1 mouse at 300 mg/kg, po administered via gavage and measured after 8 hrs by UHPLC-DAD analysis; type: ADME, organism-based; conditions: in vivo
[21] = (§4) Cytotoxicity against African green monkey Vero cells assessed as reduction in cell viability incubated for 72 hrs by neutral red uptake method; type: toxicity, cell-based; conditions: chlorocebus sabaeus, Vero cells
[22] = test system: Mycobacterium tuberculosis; experiment: microbe, parasite or virus in culture; conditions: H37Rv (ATCC 27294)
HepG2 [23] = experiment: as §1; type: toxicity, cell-based; conditions: hepg2, 72 h
HepG2 [24] = experiment: as §2; type: toxicity, cell-based; conditions: hepg2, 72 h
Vero [25] = experiment: as §3; type: toxicity, cell-based; conditions: chlorocebus sabaeus, vero, 72 h
Vero [26] = experiment: as §4; type: toxicity, cell-based; conditions: chlorocebus sabaeus, vero, 72 h
[27] = Aqueous solubility of compound in PBS at pH 7.4 incubated for 4 hrs by UHPLC-DAD analysis; type: physicochemical
[28] = Aqueous solubility of compound in NH4HCO3 at pH 9.1 incubated for 4 hrs by UHPLC-DAD analysis; type: physicochemical; conditions: NH4HCO3, pH 9.1
[29] = test system: Mycobacterium tuberculosis; type: functional, H37Rv (ATCC 27294), RAW264.7; conditions: dose 1 µM; time 5 day; remark: listed apart in the source

Structure (SMILES) | CC50 at 72 h [1] | CC50 at 72 h [2] | CC50 at 72 h [3] | solubility at 4 h [4] | CC50 at 72 h [21] | MIC [22] | also measured
CCc1ccc(NCCCOc2cc(C)nc3ccc(Br)cc23)cc1 | > 20 µM | > 20 µM | > 20 µM | > 2500 µM |  |  | MIC (Staphylococcus aureus): > 20 µM; MIC (Escherichia coli): > 20 µM; MIC (Acinetobacter baumannii): > 20 µM; MIC (Klebsiella pneumoniae): > 20 µM; remaining at 24 h, 10 µM [5]: 100%; remaining at 24 h, 10 µM [6]: 5.3%; remaining at 24 h, 10 µM [7]: 6%; Papp at 5 h, 10 µM [8]: 0.2 ×10⁻⁶ cm/s; CLint scaled at 2 µM [9]: 58 mL/min/kg; half-life at 2 µM [10]: 7 min; Activity [11]: 3.9 log10CFU; Activity [12]: 4.1 log10CFU; concentration at […] [13]: 7.49 µM; concentration at 0.5 h [14]: 11.1 µM; concentration at 0.75 h [15]: 15.7 µM; concentration at 1 h [16]: 32.1 µM; concentration at 4 h [17]: 13.5 µM; concentration at 8 h [18]: 9.8 µM; half-life [19]: 4.3 h; k el at 8 h [20]: 4.44e-05 s⁻¹
COc1ccc2nc(C)cc(OCCCNc3ccc(Br)cc3)c2c1 | 15.3 µM | 16.8 µM | > 20 µM | > 2500 µM | 12.8 µM | 0.1 µM (≈ 0.0401 µg/mL) | 
CCc1ccc(NCCCOc2cc(C)nc3ccc(Cl)cc23)cc1 |  |  |  | 200 µM (≈ 71 µg/mL) |  | 0.03 µM (≈ 0.0106 µg/mL) | CC50 (HepG2 [23]): Not_determined(Insoluble); CC50 (HepG2 [24]): Not_determined(Insoluble); CC50 (Vero [25]): Not_determined(Insoluble); CC50 (Vero [26]): Not_determined(Insoluble); solubility at 4 h [27]: 0.06 µM (≈ 0.0213 µg/mL); solubility at 4 h [28]: 0.37 µM (≈ 0.131 µg/mL)
Cc1cc(OCCCNc2ccc(Br)cc2)c2cc(Cl)ccc2n1 | 0.3 µM |  | < 1 µM |  |  | 1.55 µM (≈ 0.629 µg/mL) | 
NNC(=O)c1ccncc1 [ISONIAZID] |  |  |  |  |  |  | Activity [29]: 2.25 log10CFU
Cc1cc(OCCCNc2ccc(Cl)cc2)c2cc(Br)ccc2n1 | > 20 µM | > 20 µM |  | > 2470 µM |  |  | 
CCc1ccc(NCCCOc2cc(C)nc3ccc(OC)cc23)cc1 |  |  |  | 2650 µM (≈ 929 µg/mL) |  | 0.06 µM (≈ 0.021 µg/mL) | 
COc1ccc2nc(C)cc(OCCCNc3ccc(I)cc3)c2c1 | 10.6 µM | 12.8 µM | 8.2 µM | > 2230 µM | 7.5 µM | 0.09 µM (≈ 0.0403 µg/mL) | 
CCc1ccc(NCCCOc2cc(CC)nc3ccc(Br)cc23)cc1 | > 20 µM | 8.3 µM | > 20 µM |  | 9.1 µM | 0.1 µM (≈ 0.0413 µg/mL) | 
